Test results from PubChem BioAssay (NCI).
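Step 1: Grow cells in 96-well plates. Step 2: Expose to compound for 48 hours at 5 concentrations. Step 3: Interpolate endpoints linearly; if unreached, use highest concentration. TGI: concentration producing complete growth inhibition.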

What was measured:
Experiment in all cases: NCI-60 cell line screen, 48 h
OVCAR-8 ovarian = test system: OVCAR-8 ovarian
SN12C renal = test system: SN12C renal
OVCAR-3 ovarian = test system: OVCAR-3 ovarian
SF-539 CNS = test system: SF-539 CNS
IGROV1 ovarian = test system: IGROV1 ovarian
MDA-MB-435 = test system: MDA-MB-435
SNB-75 CNS = test system: SNB-75 CNS
UACC-257 melanoma = test system: UACC-257 melanoma
HCT-15 colon = test system: HCT-15 colon
SNB-19 CNS = test system: SNB-19 CNS
M14 melanoma = test system: M14 melanoma
OVCAR-4 ovarian = test system: OVCAR-4 ovarian
K-562 leukemia = test system: K-562 leukemia
MDA-MB-231 breast = test system: MDA-MB-231 breast
HT29 colon = test system: HT29 colon
SR leukemia = test system: SR leukemia
CAKI-1 renal = test system: CAKI-1 renal
T-47D breast = test system: T-47D breast
UACC-62 melanoma = test system: UACC-62 melanoma
XF 498 CNS = test system: XF 498 CNS

| SMILES | TGI (OVCAR-8 ovarian) [µM] | TGI (SN12C renal) [µM] | TGI (OVCAR-3 ovarian) [µM] | TGI (SF-539 CNS) [µM] | TGI (IGROV1 ovarian) [µM] | TGI (MDA-MB-435) [µM] | TGI (SNB-75 CNS) [µM] | TGI (UACC-257 melanoma) [µM] | TGI (HCT-15 colon) [µM] | TGI (SNB-19 CNS) [µM] | TGI (M14 melanoma) [µM] | TGI (OVCAR-4 ovarian) [µM] | TGI (K-562 leukemia) [µM] | TGI (MDA-MB-231 breast) [µM] | TGI (HT29 colon) [µM] | TGI (SR leukemia) [µM] | TGI (CAKI-1 renal) [µM] | TGI (T-47D breast) [µM] | TGI (UACC-62 melanoma) [µM] | TGI (XF 498 CNS) [µM] |
| --- | --- | --- | --- | --- | --- | --- | --- | --- | --- | --- | --- | --- | --- | --- | --- | --- | --- | --- | --- | --- |
| Fc1cc(C2=C[C@H](c3ccc(Cl)cc3)NC(=S)N2)c(Cl)cc1Cl | > 100 | 79.6 | > 100 | > 100 | > 100 | > 100 | > 100 | > 100 | > 100 | > 100 | > 100 | > 100 | > 100 | 88.7 | > 100 | > 100 | > 100 | > 100 | > 100 |  |
| COC(=O)c1[nH]c(=S)[nH]c(=O)c1-c1ccc(Cl)cc1 | > 50 | > 50 | > 50 | > 50 | > 50 |  | > 50 | > 50 | > 50 | > 50 | > 50 | > 50 | > 50 |  | > 50 | > 50 | > 50 |  | > 50 | > 50 |
| C/C(=N\N)C(CN(C)C)C(c1ccccc1)c1c(O)c2ccccc2oc1=O (configuration not stated) | > 100 | > 100 | > 100 | > 100 | > 100 | > 100 | > 100 | > 100 | > 100 | > 100 | > 100 | > 100 | > 100 | > 100 | > 100 | > 100 | > 100 |  | > 100 | 99.8 |
| CC1=NC(=O)C(C)(c2ccccc2)N1CCc1ccccc1 (configuration not stated) | > 100 | > 100 | > 100 | > 100 | > 100 | > 100 | > 100 | > 100 | > 100 | > 100 | > 100 | > 100 | > 100 | > 100 | > 100 | > 100 | > 100 | > 100 | > 100 |  |
| COc1ccccc1C1CC(=O)CC(c2ccccc2OC)C12C(=O)NC(=S)NC2=O (configuration not stated) | > 100 | > 100 | > 100 | > 100 | > 100 | 94.3 | > 100 | > 100 | > 100 | > 100 | > 100 | > 100 | > 100 | > 100 | > 100 | > 100 | > 100 | > 100 | > 100 |  |
| CCOC(=O)/C(O)=C(/C=N\C(=S)Nc1ccccc1Cl)C(=O)OCC | > 100 | > 100 | > 100 | > 100 | > 100 | > 100 | > 100 | > 100 | > 100 | > 100 | > 100 | > 100 | > 100 | > 100 | > 100 | > 100 | > 100 | > 100 | > 100 |  |
